Assay results published in ChEMBL document CHEMBL1201862, “PubChem BioAssay data set” (2004).
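Briefly, cells in 96-well plates were exposed to five compound concentrations for 48 h, and endpoints were estimated by linear interpolation. GI50 is the concentration that inhibits growth by half.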 Activity calls are given as the source filed them. Rule as the data show it: active = GI50 up to about 1.1 µM and inactive = higher.

What was measured:
Assay in all cases: NCI-60 cell line screen, 48 h
[1] = system: A498
[2] = system: COLO 205
[3] = system: MDA-MB-435
[4] = system: NCI-H460
[5] = system: HOP-62
[6] = system: HCC 2998
[7] = system: SF-295
[8] = system: OVCAR-5
[9] = system: RXF 393
[10] = system: TK-10
[11] = system: Malme-3M
[12] = system: SK-MEL-2
[13] = system: BT-549
[14] = system: HT-29
[15] = system: SK-OV-3
[16] = system: SR
[17] = system: OVCAR-3
[18] = system: EKVX
[19] = system: SW-620
[20] = system: MCF7
[21] = system: SNB-19
[22] = system: SK-MEL-28
[23] = system: NCI-H522
[24] = system: OVCAR-4
[25] = system: NCI/ADR-RES
[26] = system: SN12C
[27] = system: Hs-578T
[28] = system: HCT-15
[29] = system: SF-268
[30] = system: A549
[31] = system: KM12
[32] = system: ACHN
[33] = system: LOX IMVI
[34] = system: UO-31
[35] = system: U-251
[36] = system: CAKI-1
[37] = system: UACC-257
[38] = system: IGROV-1
[39] = system: 786-0
[40] = system: UACC-62
[41] = system: M14
[42] = system: CCRF-CEM
[43] = system: HCT-116
[44] = system: T47D
[45] = system: MDA-N
[46] = system: SNB-75
[47] = system: K562
[48] = system: OVCAR-8
[49] = system: PC-3
[50] = system: DU-145
[51] = system: MOLT-4
[52] = system: SK-MEL-5
[53] = system: NCI-H226
[54] = system: RPMI-8226
[55] = system: MDA-MB-231
[56] = system: SF-539
[57] = system: HL-60
[58] = system: NCI-H23

O=C1c2cc(Cl)ccc2-n2c(noc2=O)C2CSCN12 (stereo not given)
GI50 [1]: > 100 µM (inactive) | GI50 [2]: > 100 µM (inactive) | GI50 [3]: > 100 µM (inactive) | GI50 [4]: > 100 µM (inactive) | GI50 [5]: > 100 µM (inactive) | GI50 [6]: > 100 µM (inactive) | GI50 [7]: > 100 µM (inactive) | GI50 [8]: > 100 µM (inactive) | GI50 [9]: > 100 µM (inactive) | GI50 [10]: > 100 µM (inactive) | GI50 [11]: > 100 µM (inactive) | GI50 [12]: > 100 µM (inactive) | GI50 [13]: > 100 µM (inactive) | GI50 [14]: > 100 µM (inactive) | GI50 [15]: > 100 µM (inactive) | GI50 [16]: > 100 µM (inactive) | GI50 [17]: > 100 µM (inactive) | GI50 [18]: > 100 µM (inactive) | GI50 [19]: > 100 µM (inactive) | GI50 [20]: > 100 µM (inactive) | GI50 [21]: > 100 µM (inactive) | GI50 [22]: > 100 µM (inactive) | GI50 [23]: > 100 µM (inactive) | GI50 [24]: > 100 µM (inactive) | GI50 [25]: > 100 µM (inactive) | GI50 [26]: > 100 µM (inactive) | GI50 [27]: > 100 µM (inactive) | GI50 [28]: > 100 µM | GI50 [29]: > 100 µM (inactive) | GI50 [30]: > 100 µM (inactive) | GI50 [31]: > 100 µM (inactive) | GI50 [32]: > 100 µM (inactive) | GI50 [33]: > 100 µM (inactive) | GI50 [34]: > 100 µM (inactive) | GI50 [35]: > 100 µM (inactive) | GI50 [36]: > 100 µM (inactive) | GI50 [37]: > 100 µM (inactive) | GI50 [38]: > 100 µM (inactive) | GI50 [39]: > 100 µM (inactive) | GI50 [40]: > 100 µM (inactive) | GI50 [41]: > 100 µM (inactive) | GI50 [42]: > 100 µM (inactive) | GI50 [43]: > 100 µM (inactive) | GI50 [44]: > 100 µM (inactive) | GI50 [45]: > 100 µM (inactive) | GI50 [46]: > 100 µM (inactive) | GI50 [47]: 55.7 µM (inactive) | GI50 [48]: > 100 µM (inactive) | GI50 [49]: > 100 µM (inactive) | GI50 [50]: > 100 µM (inactive) | GI50 [51]: > 100 µM (inactive) | GI50 [52]: > 100 µM (inactive) | GI50 [53]: > 100 µM (inactive) | GI50 [54]: > 100 µM (inactive) | GI50 [55]: > 100 µM (inactive)

N/C(=N\c1c([N+](=O)[O-])cnc2ccccc12)N1CCOCC1
GI50 [1]: > 100 µM (inactive) | GI50 [2]: > 100 µM (inactive) | GI50 [56]: > 100 µM (inactive) | GI50 [3]: > 100 µM (inactive) | GI50 [4]: > 100 µM (inactive) | GI50 [5]: > 100 µM (inactive) | GI50 [7]: 86.9 µM (inactive) | GI50 [8]: > 100 µM (inactive) | GI50 [10]: > 100 µM (inactive) | GI50 [12]: > 100 µM (inactive) | GI50 [13]: > 100 µM (inactive) | GI50 [14]: > 100 µM (inactive) | GI50 [15]: > 100 µM (inactive) | GI50 [16]: > 100 µM (inactive) | GI50 [17]: > 100 µM (inactive) | GI50 [18]: > 100 µM (inactive) | GI50 [19]: > 100 µM (inactive) | GI50 [20]: > 100 µM (inactive) | GI50 [21]: > 100 µM (inactive) | GI50 [22]: > 100 µM (inactive) | GI50 [23]: > 100 µM (inactive) | GI50 [24]: > 100 µM (inactive) | GI50 [25]: 95.9 µM (inactive) | GI50 [26]: > 100 µM (inactive) | GI50 [27]: > 100 µM (inactive) | GI50 [28]: > 100 µM | GI50 [29]: > 100 µM (inactive) | GI50 [30]: > 100 µM (inactive) | GI50 [31]: > 100 µM (inactive) | GI50 [32]: > 100 µM (inactive) | GI50 [33]: > 100 µM (inactive) | GI50 [34]: > 100 µM (inactive) | GI50 [35]: > 100 µM (inactive) | GI50 [36]: > 100 µM (inactive) | GI50 [57]: > 100 µM (inactive) | GI50 [37]: > 10 µM (inactive) | GI50 [38]: > 100 µM (inactive) | GI50 [39]: > 100 µM (inactive) | GI50 [40]: > 100 µM (inactive) | GI50 [58]: > 100 µM (inactive) | GI50 [41]: > 100 µM (inactive) | GI50 [42]: > 100 µM (inactive) | GI50 [43]: > 100 µM (inactive) | GI50 [44]: > 100 µM (inactive) | GI50 [45]: > 100 µM (inactive) | GI50 [46]: > 100 µM (inactive) | GI50 [47]: > 100 µM (inactive) | GI50 [48]: > 100 µM (inactive) | GI50 [49]: > 100 µM (inactive) | GI50 [50]: > 100 µM (inactive) | GI50 [51]: > 100 µM (inactive) | GI50 [52]: > 100 µM (inactive) | GI50 [53]: > 100 µM (inactive) | GI50 [54]: > 100 µM (inactive) | GI50 [55]: > 100 µM (inactive)
